Assay results published in patent US20260262643A1, “HERBICIDAL BENZOXAZINES” (FMC CORPORATION, priority 2022, published 2026).

Key:
barnyardgrass [1] = assay: Test C preemergence; assay type: in vivo, Echinochloa crusgalli
Method in brief: (§1)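 Soil-applied (pre) and foliar (post, 1–2 leaf, 2–10 cm) sprays; surfactant-containing non-phytotoxic solvent vehicle; loam/sand substrate. Readout: visual % control at 10 d, greenhouse, versus untreated.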

ryegrass, Italian [2] = assay: Test C preemergence; assay type: in vivo, Lolium multiflorum
Method in brief: as §1

barnyardgrass [3] = assay: Test D flooded paddy test; assay type: in vivo, Echinochloa crus-galli; conditions: 250 g ai/ha, applied to paddy water, visual rating after 13 to 14 days, scale 0 to 100 (0 no effect, 100 complete control)
Method in brief: (§2)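 Visual ratings from 0, meaning no effect, to 100, meaning complete control, were assigned against untreated controls 13 to 14 days after compounds were added to the floodwater of pots kept 3 cm deep, with plants at the 2-leaf stage.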

foxtail, giant [4] = assay: Test C postemergence; assay type: in vivo, Setaria faberi; conditions: 10 days, 0 to 100 scale (0 no effect, 100 complete control)
Method in brief: as §1

sedge, umbrella = assay: Test D flooded paddy test; assay type: in vivo, Cyperus difformis; conditions: 250 g ai/ha, applied to paddy water, visual rating after 13 to 14 days, scale 0 to 100 (0 no effect, 100 complete control)
Method in brief: as §2

wheat [5] = assay: Test C postemergence; assay type: in vivo, Triticum aestivum; conditions: 10 days, 0 to 100 scale (0 no effect, 100 complete control)
Method in brief: as §1

ragweed [6] = assay: Test C postemergence; assay type: in vivo, Ambrosia artemisiifolia; conditions: 10 days, 0 to 100 scale (0 no effect, 100 complete control)
Method in brief: as §1

blackgrass [7] = assay: Test C postemergence; assay type: in vivo, Alopecurus myosuroides; conditions: 10 days, 0 to 100 scale (0 no effect, 100 complete control)
Method in brief: as §1

oat, wild [8] = assay: Test C postemergence; assay type: in vivo, Avena fatua; conditions: 10 days, 0 to 100 scale (0 no effect, 100 complete control)
Method in brief: as §1

soybean [9] = assay: Test C preemergence; assay type: in vivo, Glycine max
Method in brief: as §1

pigweed, palmer [10] = assay: Test C postemergence; assay type: in vivo, Amaranthus palmeri; conditions: 10 days, 0 to 100 scale (0 no effect, 100 complete control)
Method in brief: as §1

wheat [11] = assay: Test C preemergence; assay type: in vivo, Triticum aestivum
Method in brief: as §1

barnyardgrass [12] = assay: Test C postemergence; assay type: in vivo, Echinochloa crusgalli; conditions: 10 days, 0 to 100 scale (0 no effect, 100 complete control)
Method in brief: as §1

kochia [13] = assay: Test C postemergence; assay type: in vivo, Bassia scoparia; conditions: 10 days, 0 to 100 scale (0 no effect, 100 complete control)
Method in brief: as §1

oat, wild [14] = assay: Test C preemergence; assay type: in vivo, Avena fatua
Method in brief: as §1

ryegrass, Italian [15] = assay: Test C postemergence; assay type: in vivo, Lolium multiflorum; conditions: 10 days, 0 to 100 scale (0 no effect, 100 complete control)
Method in brief: as §1

rice = assay: Test D flooded paddy test; assay type: in vivo, Oryza sativa; conditions: 250 g ai/ha, applied to paddy water, visual rating after 13 to 14 days, scale 0 to 100 (0 no effect, 100 complete control)
Method in brief: as §2

blackgrass [16] = assay: Test C preemergence; assay type: in vivo, Alopecurus myosuroides
Method in brief: as §1

foxtail, giant [17] = assay: Test C preemergence; assay type: in vivo, Setaria faberi
Method in brief: as §1

ragweed [18] = assay: Test C preemergence; assay type: in vivo, Ambrosia artemisiifolia
Method in brief: as §1

galium = assay: Test C postemergence; assay type: in vivo, Galium aparine; conditions: 10 days, 0 to 100 scale (0 no effect, 100 complete control)
Method in brief: as §1

soybean [19] = assay: Test C postemergence; assay type: in vivo, Glycine max; conditions: 10 days, 0 to 100 scale (0 no effect, 100 complete control)
Method in brief: as §1

corn [20] = assay: Test C postemergence; assay type: in vivo, Zea mays; conditions: 10 days, 0 to 100 scale (0 no effect, 100 complete control)
Method in brief: as §1

kochia [21] = assay: Test C preemergence; assay type: in vivo, Bassia scoparia
Method in brief: as §1

horseweed = assay: Test C postemergence; assay type: in vivo, Erigeron canadensis; conditions: 10 days, 0 to 100 scale (0 no effect, 100 complete control)
Method in brief: as §1

pigweed, palmer [22] = assay: Test C preemergence; assay type: in vivo, Amaranthus palmeri
Method in brief: as §1

ducksalad = assay: Test D flooded paddy test; assay type: in vivo, Heteranthera limosa; conditions: 250 g ai/ha, applied to paddy water, visual rating after 13 to 14 days, scale 0 to 100 (0 no effect, 100 complete control)
Method in brief: as §2

corn [23] = assay: Test C preemergence; assay type: in vivo, Zea mays
Method in brief: as §1

[24] = 500 g ai/ha, preemergence, 0 to 100 scale (0 no effect, 100 complete control)
[25] = Preemergence, 125 g ai/ha, 0 to 100 scale, 0 no effect, 100 complete control

CCc1ncn(-c2cc(C(=O)N3CC(C(F)(F)F)Oc4c(Cl)cccc43)ccn2)n1 (racemic) [Compound 334]
Barnyardgrass plant response rating (barnyardgrass [1]; [24]): 100
Plant response rating, Barnyardgrass (barnyardgrass [1]; [25]): 60
Ryegrass, Italian plant response rating (ryegrass, Italian [2]; [24]): 90
Plant response rating, Ryegrass, Italian (ryegrass, Italian [2]; [25]): 70
Plant response rating, Barnyardgrass (Flood) (barnyardgrass [3]): 10
Plant response rating, Foxtail, Giant (foxtail, giant [4]; 500 g ai/ha, postemergence): 90
Plant response rating, Foxtail, Giant (foxtail, giant [4]; Postemergence, 125 g ai/ha): 70
Plant response rating, Sedge, Umbrella (Flood) (sedge, umbrella): 70
Plant response rating, Wheat (wheat [5]; 500 g ai/ha, postemergence): 50
Plant response rating, Wheat (wheat [5]; Postemergence, 125 g ai/ha): 20
Plant response rating, Ragweed (ragweed [6]; 500 g ai/ha, postemergence): 60
Plant response rating, Ragweed (ragweed [6]; Postemergence, 125 g ai/ha): 0
Plant response rating, Blackgrass (blackgrass [7]; 500 g ai/ha, postemergence): 80
Plant response rating, Blackgrass (blackgrass [7]; Postemergence, 125 g ai/ha): 40
Plant response rating, Oat, Wild (oat, wild [8]; 500 g ai/ha, postemergence): 40
Plant response rating, Oat, Wild (oat, wild [8]; Postemergence, 125 g ai/ha): 10
Soybean plant response rating (soybean [9]; [24]): 60
Plant response rating, Soybean (soybean [9]; [25]): 0
Plant response rating, Pigweed, Palmer (pigweed, palmer [10]; 500 g ai/ha, postemergence): 50
Plant response rating, Pigweed, Palmer (pigweed, palmer [10]; Postemergence, 125 g ai/ha): 30
Wheat plant response rating (wheat [11]; [24]): 20
Plant response rating, Wheat (wheat [11]; [25]): 0
Plant response rating, Barnyardgrass (barnyardgrass [12]; 500 g ai/ha, postemergence): 90
Plant response rating, Barnyardgrass (barnyardgrass [12]; Postemergence, 125 g ai/ha): 20
Plant response rating, Kochia (kochia [13]; 500 g ai/ha, postemergence): 80
Plant response rating, Kochia (kochia [13]; Postemergence, 125 g ai/ha): 80
Oat, Wild plant response rating (oat, wild [14]; [24]): 30
Plant response rating, Oat, Wild (oat, wild [14]; [25]): 0
Plant response rating, Ryegrass, Italian (ryegrass, Italian [15]; 500 g ai/ha, postemergence): 70
Plant response rating, Ryegrass, Italian (ryegrass, Italian [15]; Postemergence, 125 g ai/ha): 50
Plant response rating, Rice (Flood) (rice): 0
Blackgrass plant response rating (blackgrass [16]; [24]): 90
Plant response rating, Blackgrass (blackgrass [16]; [25]): 80
Foxtail, Giant plant response rating (foxtail, giant [17]; [24]): 100
Plant response rating, Foxtail, Giant (foxtail, giant [17]; [25]): 90
Ragweed plant response rating (ragweed [18]; [24]): 30
Plant response rating, Ragweed (ragweed [18]; [25]): 0
Plant response rating, Galium (galium; 500 g ai/ha, postemergence): 100
Plant response rating, Galium (galium; Postemergence, 125 g ai/ha): 100
Plant response rating, Soybean (soybean [19]; 500 g ai/ha, postemergence): 100
Plant response rating, Soybean (soybean [19]; Postemergence, 125 g ai/ha): 100
Plant response rating, Corn (corn [20]; 500 g ai/ha, postemergence): 90
Plant response rating, Corn (corn [20]; Postemergence, 125 g ai/ha): 40
Kochia plant response rating (kochia [21]; [24]): 80
Plant response rating, Kochia (kochia [21]; [25]): 40
Plant response rating, Horseweed (horseweed; 500 g ai/ha, postemergence): 40
Plant response rating, Horseweed (horseweed; Postemergence, 125 g ai/ha): 0
Pigweed, Palmer plant response rating (pigweed, palmer [22]; [24]): 100
Plant response rating, Pigweed, Palmer (pigweed, palmer [22]; [25]): 90
Plant response rating, Ducksalad (Flood) (ducksalad): 30
Corn plant response rating (corn [23]; [24]): 50
Plant response rating, Corn (corn [23]; [25]): 0
